Data published in US20250082652A1, “SIGNALLING-PATHWAY INHIBITOR COMBINATIONS FOR USE IN THE TREATMENT OF CANCER DISEASES” (UNIVERSITÄT ZU KÖLN, priority 2022, published 2025).

What was measured:
Format in all cases: cell-based
[1] = test system: MBC M-191, M-190, M-108, and M-552 cell lines (murine ABC-DLBCL cell lines); test: Cell viability (CellTiter-Glo), single inhibitors; conditions: single agent, 72 hours, FIG. 1
Protocol: The murine MBC lines M-191, M-190, M-108 and M-552 were treated with (A) the IKK2 inhibitor LY-2409881 (0, 0.185, 0.556, 1.667, 5, 15 μM) or (B) the BCL-2 inhibitor ABT-199 (0, 11.1, 33.3, 100, 300 nM) for 72 hours and cell viability was measured by CellTiter-Glo®. The illustrations in FIG. 1 represent three independent experiments.
The murine MBC M-191, M-190, M-108, and M-552 cell lines were generated by adopting cells from murine Myd88p.L252P/wt;R26LSL.BCL2/wt;CD19Cre/wt tumors to cell culture conditions. BSQ10, BSQ12.4 and BSQ27 are stable cell lines generated from Cd79 bp.Y195H/wt;Myd88p.L252P/wt;R26LSL.BCL2/wt;CD19Cre/wt tumors. BWQ89.3 is a stable cell line derived from a murine Prdm1flox/flox;Myd88p.L252P/wt;R26LSL.BCL2/wt;CD19Cre/wt tumor. The MBC cell lines are derived from tumors spontaneously developing in mice that B cell-specifically express the Myd88 p.L252P mutation (the murine orthologue of the human p.L265P) from the endogenous locus in combination with a strong BCL2 overexpression derived from a Rosa26 knock-in allele. Both MYD88 mutations and BCL2 overexpression are frequently found in ABC-DLBCL and Myd88p.L252P/wt;R26LSL.BCL2/wt;CD19Cre/wt animals (abbreviated MBC) develop an ABC-DLBCL-like disease with high NF-kB activation (17). […]

[2] = test system: murine MBC cell lines M-108, M-191, and M-552; test: Cell viability (CellTiter-Glo), ABT-199 and/or ML120B; conditions: ABT-199 combined with ML120B, 72 hours, M108, M191 and M552, FIG. 2
Protocol: The murine MBC lines M-191, M-190, M-108 and M-552 were treated with ABT-199 and/or IKK2-inhibitor ML120B at the indicated doses for 72 hours and cell viability was measured by CellTiter-Glo®. The illustrations in FIG. 2 represent two independent experiments. To test the pharmacological inhibition potential of IKK2 and BCL-2 to kill lymphoma cells, MBC M-191, M-190, M-108, and M-552 cell lines were cultured in DMEM media (Gibco) containing 10% FCS, 1% penicillin/[…] (Gibco), 6 ml L-glutamine (200 mM, Gibco), 6 ml sodium pyruvate (100 mM, Gibco), 6 ml HEPES (1 M), 6 ml non-essential amino acids (100×, Gibco), 50 μM 2-mercaptoethanol. Then, cell viability assays were used to test the pharmacological inhibition potential of IKK2 (using the inhibitor LY2409881) and BCL-2 (using the inhibitor ABT-199) to kill the MBC M-191, M-190, M-108, and M-552 cell lines. […] After an incubation time of 15 minutes, the luminescence signal was read on a plate reader (Tecan). All conditions were measured in triplicate, randomized across the plate and the DMSO concentration in each well was adjusted to maximum DMSO concentration (0.4%) in all wells, and normalized to untreated conditions. […]

[3] = test system: murine cancer cell lines M108, M191, BSQ10, BSQ12.4, BSQ27, BWQ89.3; test: Cell viability (CellTiterGlo), IKK2 inhibitors with or without Nec1s and/or ABT-199, FIG. 3 A-F; conditions: 72 hrs; for synergistic killing of cancer cell lines (cell viability): ABT-199 combined with an IKK2 inhibitor (ML120B, BI605906 or PS1145), FIG. 3
Protocol: (§1) Murine (A-F) and human (G) cell lines were treated with IKK2 inhibitors in the absence or presence of a RIPK1 inhibitor and/or a BCL-2 inhibitor as indicated. Cell viability was measured after 72 hrs using CellTiterGlo assay. The data points represent mean values of independent experiments. A. The murine cell line M108 was treated with the IKK2 inhibitors ML120B, BI605906 and PS1145 in the absence or presence of the RIPK1 inhibitor Nec1s (10 μM or 20 μM, as indicated) and/or the BCL-2 inhibitor ABT-199 (125 nM or 250 nM as indicated). B. The murine cell line M191 was treated with the IKK2 inhibitors ML120B, PS1145 and BI605906 in the absence or presence of the RIPK1 inhibitor Nec1s (10 μM or 20 μM, as indicated) and/or the BCL-2 inhibitor ABT-199 (125 nM or 250 nM as indicated). C. The murine cell line BSQ10 was treated with the IKK2 inhibitors ML120B, PS1145 and BI605906 in the absence or presence of the RIPK1 inhibitor Nec1s (10 μM or 20 μM, as indicated) and/or the BCL-2 inhibitor ABT-199 (125 nM or 250 nM as indicated). D. The murine cell line BSQ12.4 was treated with the IKK2 inhibitors ML120B, PS1145 and BI605906 in the absence or presence of the RIPK1 inhibitor Nec1s (10 μM or 20 μM, as indicated) and/or the BCL-2 inhibitor ABT-199 (125 nM or 250 nM as indicated). E. The murine cell line BSQ27 was treated with the IKK2 inhibitors ML120B, PS1145 and BI605906 in the absence or presence of the RIPK1 inhibitor Nec1s (10 μM or 20 μM, as indicated) and/or the BCL-2 inhibitor ABT-199 (125 nM or 250 nM as indicated). F. The murine cell line BWQ89.3 was treated with the IKK2 inhibitors ML120B, PS1145 and BI605906 in the absence or presence of the RIPK1 inhibitor Nec1s (10 μM or 20 μM, as indicated) and/or the BCL-2 inhibitor ABT-199 (125 nM or 250 nM as indicated). G. The human cell line HBL1 was treated with the IKK2 inhibitors ML120B, PS1145 and BI605906 in the absence or presence of the RIPK1 inhibitor Nec1s (10 μM or 20 μM, as indicated) and/or the BCL-2 inhibitor ABT-199 (125 nM or 250 nM as indicated).
The murine MBC M-191, M-190, M-108, and M-552 cell lines were generated by adopting cells from murine Myd88p.L252P/wt;R26LSL.BCL2/wt;CD19Cre/wt tumors to cell culture conditions. BSQ10, BSQ12.4 and BSQ27 are stable cell lines generated from Cd79 bp.Y195H/wt;Myd88p.L252P/wt;R26LSL.BCL2/wt;CD19Cre/wt tumors. BWQ89.3 is a stable cell line derived from a murine Prdm1flox/flox;Myd88p.L252P/wt;R26LSL.BCL2/wt;CD19Cre/wt tumor. The MBC cell lines are derived from tumors spontaneously developing in mice that B cell-specifically express the Myd88 p.L252P mutation (the murine orthologue of the human p.L265P) from the endogenous locus in combination with a strong BCL2 overexpression derived from a Rosa26 knock-in allele. Both MYD88 mutations and BCL2 overexpression are frequently found in ABC-DLBCL and Myd88p.L252P/wt;R26LSL.BCL2/wt;CD19Cre/wt animals (abbreviated MBC) develop an ABC-DLBCL-like disease with high NF-kB activation (17).
Murine cell lines (FIG. 3 A-F) were cultured in DMEM media (Gibco) containing 10% FCS, 1% penicillin/[…] (Gibco), 6 ml L-glutamine (200 mM, Gibco), 6 ml sodium pyruvate (100 mM, Gibco), 6 ml HEPES (1 M), 6 ml non-essential amino acids (100×, Gibco), and 50 μM 2-mercaptoethanol. […] Cell viability of murine and human cell lines was measured after 72 hrs using CellTiterGlo assay. […]

[4] = test system: human DLBCL cell line HBL1; test: Cell viability (CellTiterGlo), IKK2 inhibitors with or without Nec1s and/or ABT-199, FIG. 3 G; conditions: 72 hrs; for synergistic killing of cancer cell lines (cell viability): ABT-199 combined with an IKK2 inhibitor (ML120B, BI605906 or PS1145), HBL1, FIG. 3
Protocol: as §1
Murine cell lines (FIG. 3 A-F) were cultured in DMEM media (Gibco) containing 10% FCS, 1% penicillin/[…] (Gibco), 6 ml L-glutamine (200 mM, Gibco), 6 ml sodium pyruvate (100 mM, Gibco), 6 ml HEPES (1 M), 6 ml non-essential amino acids (100×, Gibco), and 50 μM 2-mercaptoethanol. Cells were plated in opaque 384-well plates at a density of 100.000 cells/ml (30 μl of culture volume) and treated with the indicated compounds dissolved in DMSO using a Tecan D300e digital dispenser. The human DLBCL cell line HBL1 (FIG. 3 G) was cultured in RPMI (Gibco) containing 20% FCS (Gibco) and 1% penicillin/[…] (Gibco) and treated with the indicated compounds dissolved in DMSO using a Tecan D300e digital dispenser. Cell viability of murine and human cell lines was measured after 72 hrs using CellTiterGlo assay. The data points represent mean values of independent experiments.

[5] = test system: IL-1β production by macrophages; test: LPS-induced production of IL-1β by macrophages treated with IKK inhibitors; conditions: pharmacological RIPK1 inhibition

SMILES	synergistic killing of cancer cell lines (cell viability) [2]	synergistic killing of cancer cell lines (cell viability) [3]	synergistic killing of cancer cell lines (cell viability) [4]	further results
CC1(C)CCC(CN2CCN(c3ccc(C(=O)NS(=O)(=O)c4ccc(NCC5CCOCC5)c([N+](=O)[O-])c4)c(Oc4cnc5[nH]ccc5c4)c3)CC2)=C(c2ccc(Cl)cc2)C1 [ABT-199]	synergize to potentiate killing	synergize to potentiate killing	synergize to potentiate killing	killing of lymphoma cells (cell viability) [1]: strong toxicity
CCC(F)(F)c1cc(N2CCC(S(C)(=O)=O)CC2)nc2sc(C(N)=O)c(N)c12 [BI605906]		synergize to potentiate killing	synergize to potentiate killing	
COc1c(Cl)cc2c([nH]c3cnccc32)c1NC(=O)c1cccnc1C [ML120B, N-(6-chloro-7-methoxy-9H-beta-carbolin-8-yl)-2-methylnicotinamide]	synergize to potentiate killing	synergize to potentiate killing	synergize to potentiate killing	
CN1C(=O)NC(Cc2c[nH]c3c(Cl)cccc23)C1=O (centres unmarked) [Nec1s, 5-((7-chloro-1H-indol-3-yl)methyl)-3-methyl-2,4-imidazolidinedione]				effect of simultaneous RIPK1 inhibitor treatment on the synergizing killing effect of ABT-199 and IKK2 inhibitors ([3]; Nec1s 10 μM or 20 μM): not prevented; effect of simultaneous RIPK1 inhibitor treatment on the synergizing killing effect of ABT-199 and IKK2 inhibitors ([4]; Nec1s 10 μM or 20 μM, HBL1): not prevented
CN1C(=O)C(Cc2c[nH]c3ccccc23)NC1=S (centres unmarked) [Necrostatin-1, 5-(1H-indol-3-ylmethyl)-3-methyl-2-thioxo-4-imidazolidinone]				LPS-induced production of IL-1β [5]: strongly diminishes
O=C(Nc1cc(Cl)cc2c1[nH]c1cnccc12)c1cccnc1 [PS1145]		synergize to potentiate killing	synergize to potentiate killing	
